Tests used:
[1] = system: English ivy (Hedera helix); assay: Field trial of triclopyr plus phosphate ester adjuvants on English ivy plots (Example 2); assay type: in vivo; settings: triclopyr by itself, 0.55% w/v; single application
Procedure: The objective of the trial was to measure the effects of adjuvants in the same class of chemistry in the control of the evasive weed species English ivy (Hedera helix). The trial was conducted in a recreational setting at a golf course. Plots were 2×2 meters and the treatments consisted of triclopyr in the form of BioAdvanced Brush Killer Plus® 8.8% triclopyr mixed to a 0.55% w/v concentration for all the treatments, and various adjuvants treated at 0.5% ai/v (i.e., % w/v of the active ingredient) (Table 2). Controls included an untreated check group. All treatments and controls were repeated in triplicate (i.e., three plots per group). The plots were treated at the standard rate of 2 gal of mixed product per 1000 square feet. The plots were rated for the percent English Ivy in each plot. […] Trial was observed over time for the presence of English ivy in each plot.

[2] = system: brush (e.g., poison ivy, poison oak, black berries, etc.); assay: Field trial of residual control of brush, rated as bare ground (Example 3); assay type: in vivo; settings: triclopyr alone at 0.275, 0.55 and 0.8% ai/v
Procedure: The objective of the trial was to determine the effects of concentration and adjuvant on triclopyr and its residual control of brush. The trial was conducted in a recreational setting at a golf course. Plots were 1×1 meters and the treatments comprised BioAdvanced Brush Killer Plus® (8.8% triclopyr) mixed to 0.275% ai/v with various adjuvants treated at 0.1% ai/v (i.e., % weight of the active ingredient per volume) (Table 3), Controls included an untreated check group and triclopyr alone at three concentrations (0.275, 0.55, and 0.8% ai/v). All treatments and controls were repeated in triplicate (i.e., three plots per group). The plots were treated at the standard rate of 2 gal of mixed product per 1000 square feet. The plots were rated for the percent of brush (e.g., poison ivy, poison oak, black berries, etc.) in each plot. […] The observations were based upon the amount of clear area (without vegetation) in each plot.

O=C(O)COc1nc(Cl)c(Cl)cc1Cl [triclopyr, 3,5,6-Trichloro-2-pyridinyloxyacetic acid]
control of the English ivy [1]: about 53% | residual efficacy on brush as a function of triclopyr concentration [2]: the higher the concentration of the triclopyr the longer the residual efficacy

Source: patent publication US12458020B2, “Synergistic herbicidal mixtures and compositions comprising triclopyr and phosphate ester adjuvants” (SBM Développement SAS, priority 2019, dated 2025)
